These results are taken from patent US9757332B2, “Gel-like composition having high ubiquinol content” (UHA Mikakuto Co., Ltd., priority 2013, dated 2017).

This data set can be described thus: Observation of particles under optical microscope (Test Example I-4). The following applies: magnification of 400 times. The class given is physicochemical.

Consider `COc1c(O)c(C)c(C/C=C(\C)CC/C=C(\C)CC/C=C(\C)CC/C=C(\C)CC/C=C(\C)CC/C=C(\C)CC/C=C(\C)CC/C=C(\C)CC/C=C(\C)CCC=C(C)C)c(O)c1OC` [ubiquinol powder (Kaneka QH), ubiquinol], for which the “crystals observed under optical microscope” value is on record as “irregular crystal structure”.
